Among the data in PubChem BioAssay AID2842 (Southern Research Institute, 2010) are IC90 values, retold here.

≈ marks a conversion by molar mass, not a printed value.

For the assay, the system named is M. tuberculosis H37Rv growth inhibition. Put plainly: Mycobacterium tuberculosis H37Rv growth inhibition, putative kinase inhibitor library, confirmatory dose response (AID 2842).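 Further: bacteria incubated one week before Alamar blue readout.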

As a reminder, the IC90 is the point of the concentration-response curve where the effect stands at 90%. As to `COc1ccc(C(=O)Nc2nnc(-c3ccc(C)cc3C)o2)cc1`, the concentration for an effect of 90% (IC90) was 23.6 µg/mL (≈ 72.9 µM). Then `CCCCC(=O)Nc1nnc(-c2cc(Cl)ccc2Cl)o1`, with 32.4 µg/mL (≈ 103 µM); and `O=C(Nc1nnc(-c2ccc(Br)cc2)o1)c1ccc(S(=O)(=O)N2CCOCC2)cc1`, with 5.28 µg/mL (≈ 10.7 µM). With `Cc1ccc(-c2nnc(NC(=O)c3ccc(Br)s3)o2)c(C)c1`, the concentration for an effect of 90% (IC90) was 2.17 µg/mL (≈ 5.74 µM).

For `CCOc1cccc2sc(NC(=O)c3ccc(Cl)cc3Cl)nc12`, the 90% effect concentration (IC90) is 11.6 µg/mL (≈ 31.5 µM). Then `O=C(Nc1nnc(-c2ccncc2)o1)c1cccc(C(F)(F)F)c1`, with 28.1 µg/mL (≈ 84.2 µM); and `O=C(Nc1cccc(C(F)(F)F)c1)NC1CC(=O)N(c2ccc(F)cc2)C1` (stereo unspecified), with 13.2 µg/mL (≈ 34.6 µM); and `O=C(CCc1ccccc1)Nc1nnc(-c2ccc3c(c2)CCCC3)o1`, with 30 µg/mL (≈ 86.2 µM).

For the compound `COc1cccc2sc(Nc3nnc(-c4cccs4)o3)nc12`, the IC90 was 3.36 µg/mL (≈ 10.2 µM). In the case of `CC(C)c1ccc(OCC(=O)Nc2nccs2)cc1`, the IC90 was 6.88 µg/mL (≈ 24.9 µM).

Turning to `O=C(Nc1nnc(-c2cccs2)o1)c1ccc([N+](=O)[O-])s1`, the IC90 is 1.69 µg/mL (≈ 5.24 µM).

As to `O=C(Cc1ccccc1)Nc1nnc(-c2ccc3c(c2)CCCC3)o1`, the IC90 was 55.8 µg/mL (≈ 167 µM). Then `COc1cccc(-c2nnc(NC(=O)c3ccc(Cl)s3)o2)c1`, with < 0.2 µg/mL; and `Cc1cc(C)c2nc(NNC(=O)c3ccc(N(C)C)cc3)sc2c1`, with 3.23 µg/mL (≈ 9.49 µM); and `COc1cccc(-c2nnc(NC(=O)c3ccc4c(c3)CCCC4)o2)c1`, with 5.48 µg/mL (≈ 15.7 µM).

As for `O=C(Nc1nnc(-c2cccnc2)o1)c1cc(Cl)ccc1Cl`, the IC90 was 27.9 µg/mL (≈ 83.1 µM).

Turning to `Cc1ccc2cc(CCNC(=S)NCCn3ccc4ccccc43)c(=O)[nH]c2c1`, the 90% effect concentration (IC90) was 1.26 µg/mL (≈ 3.11 µM). Then `O=C(NNc1nc2c(F)cc(F)cc2s1)c1coc2ccccc2c1=O`, with 3.33 µg/mL (≈ 8.92 µM); and `COc1ccc(C(=O)N(CCCn2ccnc2)c2nc3c(C)ccc(C)c3s2)cc1OC`, with 17 µg/mL (≈ 37.7 µM); and `O=C(c1ccco1)N(CCCn1ccnc1)c1nc2ccc(F)cc2s1`, with 1.94 µg/mL (≈ 5.24 µM). Under `COc1ccc(C(=O)/C=C2\C(=O)Nc3ccccc32)cc1` stands 38.6 µg/mL (≈ 138 µM); under `Cc1n[nH]c(=O)nc1N/N=C/c1cccc(OCc2ccccc2Cl)c1`, 35.9 µg/mL (≈ 97.2 µM). As to `N=c1sc(/C=C2\C=Nc3ccccc32)c(O)n1-c1nccs1`, the IC90 is < 0.2 µg/mL. Then `CSc1ccccc1-c1nnc(NC(=O)c2cc(Cl)ccc2Cl)o1`, with 0.98 µg/mL (≈ 2.58 µM); and `O=C(Nc1nnc(-c2cc(Cl)ccc2Cl)o1)c1ccc(Br)s1`, with 2.65 µg/mL (≈ 6.32 µM). Under `Cc1cc(C)c2nc(NNC(=O)c3cc4ccccc4oc3=O)sc2c1` stands 2.16 µg/mL (≈ 5.91 µM). Then `COc1ccc2nc(N=Nc3c(C)[nH]n(-c4ccccc4)c3=O)sc2c1`, with 7.7 µg/mL (≈ 21.1 µM); and `COc1cccc(C(=O)Nc2nc3c(s2)CC(C)CC3)c1` (stereo unspecified), with 14.1 µg/mL (≈ 46.7 µM). In the case of `COc1cccc2sc(N(CCCn3ccnc3)C(=O)c3ccco3)nc12`, the IC90 was 12.4 µg/mL (≈ 32.5 µM). As for `COc1ccc2nc(Nc3nc4c(OC)cccc4s3)sc2c1`, the IC90 was 3.38 µg/mL (≈ 9.84 µM). `Cc1ccc(C(=O)Nc2nnc(-c3ccncc3)o2)cc1C`: the IC90 is 26.8 µg/mL (≈ 91 µM).

For `Cc1cccn2c(=O)c3cc(C(=O)NC(C)c4ccccc4)c(=N)n(C4CCCCC4)c3nc12` (stereo unspecified), the IC90 was 3.05 µg/mL (≈ 6.7 µM).

For `O=C(Nc1nnc(-c2ccc3c(c2)CCCC3)o1)c1ccccc1Br`, the IC90 is < 0.2 µg/mL. Regarding `O=C(Nc1nnc(-c2ccc3c(c2)CCCC3)o1)c1ccco1`, the IC90 is 0.87 µg/mL (≈ 2.81 µM).

On to `O=C(Nc1nnc(-c2cc(Cl)ccc2Cl)o1)c1ccco1`, for which the IC90 was 27.5 µg/mL (≈ 84.8 µM). Then `O=C(CSc1nc(-c2cccc(F)c2)[nH]c1-c1ccccc1)Nc1ccc2c(c1)OCCO2`, with 7.87 µg/mL (≈ 17.1 µM); and `Cc1ccc2sc(NNC(=O)C3COc4ccccc4O3)nc2c1C` (stereo unspecified), with 0.88 µg/mL (≈ 2.48 µM). Under `Cc1ccc(C2C=C(c3ccc(Cl)cc3)Nc3ncnn32)cc1` (stereo unspecified) stands 6.94 µg/mL (≈ 21.5 µM). Turning to `C=CCOC(=O)COc1ccc2cc(-c3ccccc3)c(=O)oc2c1`, the IC90 was 1.22 µg/mL (≈ 3.63 µM).

For `Cc1ccc2nc(NNC(=O)c3cccc(F)c3)sc2c1`, the IC90 is 7.65 µg/mL (≈ 25.4 µM). Under `Cc1ccc(NCCn2c(C)cn3c4c(=O)[nH]c(=O)n(C)c4nc23)cc1` stands 15.1 µg/mL (≈ 42.9 µM); under `CCCCc1ccc2[nH]cc(C(=O)O)c(=O)c2c1`, 14.5 µg/mL (≈ 59 µM); under `O=C(c1ccco1)N(CCCn1ccnc1)c1nc2ccc(Br)cc2s1`, 0.74 µg/mL (≈ 1.72 µM). Under `COc1cc(Br)cc(/C=N/Nc2nc(=O)[nH]nc2C)c1O` stands < 0.2 µg/mL; under `CC(C)(C)c1ccc(C(=O)Nc2nc(-c3ccc4c(c3)OCO4)cs2)cc1`, 6.72 µg/mL (≈ 17.7 µM). Under `O=C(OCc1nc2ccccc2s1)c1ccc(F)cc1` stands 15.4 µg/mL (≈ 53.5 µM). As for `CCN1CCc2c(sc(NC(=O)c3ccccc3)c2-c2nc3ccccc3s2)C1`, the IC90 was 0.73 µg/mL (≈ 1.74 µM). Then `Cc1ccc(-c2nnc(NC(=O)c3ccc(S(=O)(=O)N(C)C4CCCCC4)cc3)o2)c(C)c1`, with 39.2 µg/mL (≈ 83.6 µM). Then `CS(=O)(=O)Nc1cccc(C2=NN(c3nc(-c4ccccc4)c4cc(Cl)ccc4n3)C(c3ccco3)C2)c1` (stereo unspecified), with 1.42 µg/mL (≈ 2.61 µM). With `CC(C)(C)C(=O)Nc1nnc(-c2ccc(Br)cc2)o1`, the IC90 was < 0.2 µg/mL.

In the case of `Cc1ccc(-c2nnc(NC(=O)c3ccc([N+](=O)[O-])o3)o2)c(C)c1`, the IC90 is 0.69 µg/mL (≈ 2.1 µM).
